Among the test systems are LOX IMVI melanoma; MOLT-4 leukemia; SK-MEL-2 melanoma; OVCAR-8 ovarian; OVCAR-4 ovarian; SR leukemia; 786-0 renal; RXF 393 renal.
Holding throughout (test): inhibition of tumour cell growth, NCI panel, 48 h

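Assay format: 96-well plates, 48-hour exposure. GI50 is the concentration that inhibits growth by half. Definition used: TGI = concentration required for complete inhibition of growth.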 Where only a bound is given, the exact number is not on record here.

Take `COc1ccc(-c2nn(-c3cccc(NC(=O)Nc4ccc(Cl)c(C(F)(F)F)c4)c3)cc2-c2ccncc2)cc1Cl`: the GI50 is 2.95 µM in the test with LOX IMVI melanoma; 2.08 µM with MOLT-4 leukemia; 2.77 µM in the test on SK-MEL-2 melanoma; 2.43 µM with OVCAR-8 ovarian; 2.9 µM in the test on OVCAR-4 ovarian; 1.82 µM with SR leukemia. Further, the GI50 was 1.91 µM in the test with 786-0 renal and 1.42 µM in the test with RXF 393 renal. Further, the TGI turned out to be 10.6 µM with LOX IMVI melanoma; 6.74 µM in the test with MOLT-4 leukemia; 5.71 µM in the test with SK-MEL-2 melanoma; 13.1 µM with OVCAR-8 ovarian; 9.8 µM with OVCAR-4 ovarian; 5.65 µM in the test with SR leukemia. Moreover, the values for the TGI in the test with 786-0 renal and with RXF 393 renal were 4.49 µM and 4.83 µM, respectively.

Regarding `Cc1ccc(S(=O)(=O)/N=c2\ssc(Nc3ccccc3)c2Cl)cc1`, the GI50 in the test with LOX IMVI melanoma is 10.2 µM; with MOLT-4 leukemia, 10.3 µM; in the test with SK-MEL-2 melanoma, 18.3 µM; with OVCAR-8 ovarian, 16.5 µM; in the test on OVCAR-4 ovarian, 33.6 µM; with SR leukemia, 9.06 µM. The GI50 with 786-0 renal is 27.7 µM; with RXF 393 renal, 13.6 µM. The TGI in the test on LOX IMVI melanoma is 20.9 µM; in the test with MOLT-4 leukemia, over 50 µM; in the test on SK-MEL-2 melanoma, over 50 µM; with OVCAR-8 ovarian, over 50 µM; with OVCAR-4 ovarian it was over 50 µM; in the test on SR leukemia it was 25.1 µM. In addition, the TGI with 786-0 renal is over 50 µM; with RXF 393 renal, 46.1 µM.

As to `Nc1ncnc2c1nc(-c1ccccc1)n2C1OC(CO)C(O)C1O` (centres undefined), the TGI in the test on LOX IMVI melanoma, in the test with MOLT-4 leukemia, in the test with SK-MEL-2 melanoma, with OVCAR-8 ovarian, in the test with OVCAR-4 ovarian and with SR leukemia was over 100 µM throughout. Moreover, the TGI in the test on 786-0 renal and with RXF 393 renal was over 100 µM throughout.

On to `O=C(O)CC(Nc1ccccc1)C(=O)O` (centres undefined), for which the TGI with LOX IMVI melanoma, in the test with MOLT-4 leukemia, with SK-MEL-2 melanoma, in the test on OVCAR-8 ovarian, in the test with OVCAR-4 ovarian and in the test on SR leukemia was over 100 µM in each case. The TGI in the test with 786-0 renal and in the test with RXF 393 renal was over 100 µM throughout.

Regarding `C=C1C(=O)O[C@H]2[C@H]1CC/C(Cn1cc(Cn3ccc4ccccc43)nn1)=C\CC[C@@]1(C)O[C@@H]21`, the GI50 is 1.59 µM with LOX IMVI melanoma; 1.48 µM in the test with MOLT-4 leukemia; 1.73 µM in the test with SK-MEL-2 melanoma; 2.73 µM in the test with OVCAR-8 ovarian; 1.67 µM in the test with OVCAR-4 ovarian; 0.345 µM with SR leukemia. Further, the GI50 is 1.59 µM in the test on 786-0 renal and 1.41 µM with RXF 393 renal. In addition, the TGI with LOX IMVI melanoma was 3.08 µM; in the test with MOLT-4 leukemia, 5.11 µM; in the test with SK-MEL-2 melanoma it was 3.96 µM; in the test on OVCAR-8 ovarian, 8.22 µM; with OVCAR-4 ovarian it was 3.46 µM; in the test with SR leukemia it was 3.71 µM. The values for the TGI in the test on 786-0 renal and with RXF 393 renal were 3.12 µM and 2.82 µM, respectively.

With `CCOC(=O)/C(=C/c1ccc([N+](=O)[O-])cc1)C(=O)c1ccccc1`, the GI50 in the test with LOX IMVI melanoma is 1.77 µM; in the test with MOLT-4 leukemia, 3.01 µM; with SK-MEL-2 melanoma, 2.24 µM; with OVCAR-8 ovarian, 3.73 µM; in the test on OVCAR-4 ovarian, 3.44 µM; with SR leukemia, 2.85 µM. Also, the GI50 in the test on 786-0 renal is 1.82 µM; in the test on RXF 393 renal it was 2 µM. The TGI in the test with LOX IMVI melanoma was 3.38 µM; in the test on MOLT-4 leukemia it was 9.38 µM; with SK-MEL-2 melanoma, 5.15 µM; with OVCAR-8 ovarian it was 12 µM; in the test on OVCAR-4 ovarian, 12.9 µM; with SR leukemia, over 100 µM. Moreover, the TGI with 786-0 renal worked out at 3.45 µM; with RXF 393 renal it was 3.67 µM.

As for `CCCc1cc2cc(-n3nc(C)c4c3CC(C)(C)CC4=O)cc(NC3CCC(O)CC3)c2c(=O)[nH]1` (centres undefined), the GI50 with LOX IMVI melanoma is 0.116 µM; in the test with MOLT-4 leukemia, 0.186 µM; in the test on SK-MEL-2 melanoma, 0.441 µM; with OVCAR-8 ovarian, 0.519 µM; with OVCAR-4 ovarian, over 39.6 µM; in the test with SR leukemia it was 0.122 µM. The GI50 in the test on 786-0 renal is 0.874 µM; in the test on RXF 393 renal, 0.113 µM. The TGI was 1.07 µM with LOX IMVI melanoma; over 100 µM in the test with MOLT-4 leukemia; over 100 µM in the test with SK-MEL-2 melanoma; over 100 µM in the test on OVCAR-8 ovarian; over 100 µM in the test on OVCAR-4 ovarian; over 100 µM in the test with SR leukemia. Further, the TGI in the test with 786-0 renal was over 100 µM; in the test with RXF 393 renal, 2.92 µM.

On to `COc1ccc2c(c1)CCc1c(-c3noc4c3CCc3cc(OC)ccc3-4)noc1-2`, for which the TGI in the test with LOX IMVI melanoma, in the test with MOLT-4 leukemia, in the test on SK-MEL-2 melanoma, in the test on OVCAR-8 ovarian, in the test on OVCAR-4 ovarian and in the test on SR leukemia was over 100 µM each time. Further, the TGI in the test with 786-0 renal and with RXF 393 renal was over 100 µM each time.

The values above are taken from PubChem BioAssay (NCI).
